Experimental data: patent US12070483B2, “Compositions and methods for treatment of acute lung injury” (THE TRUSTEES OF THE UNIVERSITY OF PENNSYLVANIA, priority 2018, dated 2024)

Columns and labels:
[1] = test system: C57Bl/6 mice, LPS-mediated lung injury; test: Acute lung injury after intratracheal LPS (5 μg/g), lungs evaluated at 24 h; assay type: in vivo, mouse; conditions: for lung injury, peptide administered along with LPS (0 time): evaluated at 24 hours after LPS; for lung injury, peptide administered at 12-16 hours after LPS: sacrifice @ 24 hours
Experimental: The IT model of acute lung injury (ALI) as shown in Table 9 was used to test the effects of PIP-2. […] IV administration of PIP-2 was used to avoid a second ‘assault’ on the trachea. Mice were sacrificed at 24 hours and lungs were evaluated for injury as described in Table 9. Protection (%) against lung injury was calculated as [1−(injury with PIP-2−control)/(LPS alone−control)]. Results are mean±SE for n=4. *P<0.01 vs control. ^†P<0.01 vs no PIP, 24 hours.
To study the effect of PIP-2 administration on lung injury, mice were treated with LPS (5 μg/g body weight) given IT. […] PIP-2 (2 μg/g body weight in liposomes) was administered at 0, 12, or 16 h after LPS. We have shown previously that this dose of PIP-2 can inhibit lung aiPLA2 activity by ˜90% for at least 24 h. PIP-2 was given IT at time zero and IV at 12 or 16 h in order to avoid excessive damage to the trachea. Animals were sacrificed and lungs were examined at 24 h after LPS. All indices of lung injury, reflecting lung inflammation, alveolar-capillary barrier dysfunction, lung fluid accumulation, and tissue oxidative stress, were elevated in LPS-treated mice as compared to control (p<0.05). […] Since lung injury was present in lungs at 12 and 16 h after LPS, the normal values at 24 h in lungs from LPS treated mice given PIP-2 at 12 or 16 h can only mean that lungs were able to recover fully from their injury during the 8 to 12 h interval between the administration of PIP-2 and examination of the lungs.

NADPH oxidase (NOX2) = test: H2O2 production (Amplex red) of perfused lung 5 min after PIP-2 in saline or liposomes; assay type: in vivo, mouse; conditions: IT or IV
Experimental: FIGS. 1A and 1B: Wild type C57Bl/6 mice at age 8-10 weeks were injected with 2 ug/g body wt of PIP-2 either through an intratracheal catheter (IT) or intravenously (IV). The injected peptide was dissolved in saline or was incorporated into unilamellar liposomes consisting of dipalmitoyl phosphatidylcholine (DPPC), egg phosphatidylcholine (PC), phosphatidylglycerol (PG), and cholesterol (molar ratio of lipids, 50:25:10:15). […] Mice were sacrificed after 5 min, lungs were perfused until cleared of blood, and then subjected to recirculating perfusion under temperature-controlled (37° C.) conditions in the presence of the fluorescent indicator Amplex red plus horseradish peroxidase (HRP) in order to monitor the oxidation of Amplex red by H2O2. The fluorescence of aliquots of perfusate was measured at the indicated times and expressed as arbitrary fluorescence units (AFU). The increasing fluorescence with time of perfusion indicates the production of H2O2 reflecting the activation of cellular NADPH oxidase (NOX2).
The lungs were removed from mice and studied in an isolated system. The slope of the lines indicates the production of oxidants (H2O2).

aiPLA2 activity of Prdx6 = biological target: T1, aiPLA2 activity of Prdx6 (Mus musculus, UniProt O08709); test: Lung aiPLA2 activity after IT LPS; assay type: in vivo; conditions: PIP-2 with IT LPS 5 μg/g; 6, 12 and 24 h
T1 construct: from tissue; host or cells: mouse lung homogenate (wild type mice)
T1 sequence (O08709 1-224): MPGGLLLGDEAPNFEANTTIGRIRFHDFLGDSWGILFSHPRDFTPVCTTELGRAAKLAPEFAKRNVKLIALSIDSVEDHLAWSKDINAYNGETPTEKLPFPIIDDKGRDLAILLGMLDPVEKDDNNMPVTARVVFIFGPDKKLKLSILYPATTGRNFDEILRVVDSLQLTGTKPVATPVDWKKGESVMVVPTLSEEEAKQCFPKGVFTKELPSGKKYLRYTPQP
Experimental: FIGS. 4A and 4B: Phospholipase A2 of Prdx6 (aiPLA2) was measured by the liberation of palmitic acid from dipalmitoylphosphatidylcholine under acidic conditions (pH 4) in the absence of Ca^2+. FIG. 4A: The effect of increasing concentration of PIP-2 on the aiPLA2 activity of recombinant human Prdx6. FIG. 4B: The effect of LPS and PIP-2 treatment on aiPLA2 activity of mouse lungs. Mice (n=3 for each condition) were treated with intratracheal LPS (2 μg/g body wt) without or with PIP-2 (2 μg/g body weight) in liposomes. Animals were sacrificed at 6,12, or 24 h after receiving LPS. Lungs were cleared of blood and homogenized.
FIGS. 9A and 9B: PIP-2 inhibits the increased lung aiPLA2 activity and increased ROS generation after LPS administration. LPS (5 μg/g body weight) was administered by intratracheal (IT) instillation along with liposomes alone (labeled as LPS) or with PIP-2 in liposomes (labeled as +PIP-2). Control was liposomes alone without LPS (labeled as control). Mice were sacrificed at 6, 12, or 24 h after LPS and lungs were perfused in situ for 15 min with saline solution containing the fluorophore difluorofluoroscein diacetate (DFF-DA). Lungs then were homogenized and assayed for: FIG. 9A: aiPLA2 activity; FIG. 9B: fluorescence of the lung homogenate as an index of ROS production. […]

[2] = test system: mechanically ventilated mice; test: Ventilation-induced lung injury (VILI); assay type: in vivo, mouse; conditions: PIP-2 2 ug/g in liposomes IT at start of 6 h mechanical ventilation
Experimental: FIG. 13: Effect of PIP-2 on ventilation-induced lung injury (VILI). Anesthetized mice were mechanically ventilated for 6 h with tidal volume 12 ml/Kg body weight with a respiratory rate 120/min, and 2 cm H2O positive end-expiratory pressure (PEEP). […] Control represents values for normal (non-ventilated) lungs. % Protection was calculated as in Table 1. Results are mean±SE for n=4. *P<0.05 for VILI+PIP vs VILI.

[3] = test system: mice, intraperitoneal LPS; test: Intraperitoneal LPS (15 μg/g) model of ALI with systemic sepsis: survival; conditions: LPS 15 μg/g IP
Experimental: LPS (15 mg/g body wt) was given to all mice either by: FIG. 7A: intratracheal (IT) or FIG. 7B: intraperitoneal (IP) injection. PIP-2 in liposomes or placebo (liposomes alone) was administered intravenously (IV) 12 h after LPS (this is treatment time zero) and then at 12 or 24 h intervals for a total of 5 doses as indicated by the arrows. FIG. 7A: PIP-2 at 2 μg/g body wt; N=14 for each group. FIG. 7B: PIP-2 at 2 or 20 μg/g body wt.; Placebo group, n=8; PIP-2 2 mg group, n=7; PIP-2 20 mg group, n=10.
Anesthesized mice were administered LPS (either 5 or 15 μgig body weight) in 20 μl saline that was instilled into the lung through an endotracheal catheter placed at the level of the tracheal carina. […] PIP-2 in liposomes was suspended in 20 μl saline for IV or IT injection. For studies to evaluate the effect of PIP-2 at zero time, LPS administration was followed by liposomes±PIP-2 also given by IT instillation. For studies to evaluate the effect of PIP-2 administered at later times after LPS, the liposomes±PIP-2 were given by injection into a retinal artery. This shift in route of administration was used to minimize damage to the mouse trachea that could occur with repeated tracheostomy and lead to untoward effects on the lung. […] We gave the second dose of PIP-2 at 12 h to be certain of maximal coverage and then went to every 24 h for PIP-2 administration. For the model of sepsis, LPS (15 μg/g body wt.) in 20 μl saline was injected intraperitoneally and mice were treated with IV PIP-2 at either 2 or 20 μg/g body wt; note that the initial dose of PIP-2 for this sepsis model was IV, not IT. We used the same times of PIP-2 administration in the sepsis model as were used for the IT LPS model. After recovery from anesthesia, all mice were maintained in the vivarium with access ad lib to food and water.
We next evaluated the effect of PIP-2 in mice given LPS (15 μg LPS/g body wt.) by the intraperitoneal route as a model for ALI associated with systemic sepsis.

[4] = LPS 5 μg/g IT, PIP-2 2 μg/g IV @12 hr, sacrifice at 24 hrs
[5] = LPS 5 μg/g IT, PIP-2 2 μg/g IV @16 h, sacrifice at 24 hrs
[6] = Control: PIP in liposomes IT, no LPS
[7] = Control: PIP in liposomes, no LPS
[8] = LPS 5 μg/g IT, PIP-4 2 μg/g IV @12 hr, sacrifice at 24 hrs
[9] = LPS 5 μg/g IT, PIP-4 2 μg/g IV @16 h, sacrifice at 24 hrs

## LHDFRHQIL (Inhibitory peptide.) [PIP-2]
[1]; LPS 5 μg/g IT, PIP-2 2 μg/g IT @0 hrs, sacrifice at 24 hrs, control 0.95, LPS 8.67
  # of cells: 0.92 ± 0.02 ×10^4/g wt
[1]; LPS 5 μg/g IT, PIP-2 2 μg/g IT @0 hrs, sacrifice at 24 hrs, control 5.59, LPS 8.10
  Wet/Dry lung weight ratio: 5.50 ± 0.04
[1]; LPS 5 μg/g IT, PIP-2 2 μg/g IT @0 hrs, sacrifice at 24 hrs, control 5.6, LPS 16.9
  Protein carbonyls: 5.4 ± 0.1 nmol/mg prot
[1]; LPS 5 μg/g IT, PIP-2 2 μg/g IT @0 hrs, sacrifice at 24 hrs, control 34, LPS 101
  8-Isoprostanes: 31 ± 2 pmol/mg prot
[1]; LPS 5 μg/g IT, PIP-2 2 μg/g IT @0 hrs, sacrifice at 24 hrs, control 75, LPS 164
  protein: 71 mg protein/g wt
[1]; LPS 5 μg/g IT, PIP-2 2 μg/g IT @0 hrs, sacrifice at 24 hrs, control 75, LPS 381
  TBARS: 70 ± 2.1 pmol/mg prot.
[1]; [4]
  8-Isoprostanes: 38 ± 1 pmol/mg prot
  # of cells: 1.45 ± 0.03 ×10^4/g wt
  Protein carbonyls: 6.4 ± 0.2 nmol/mg prot
  TBARS: 85 ± 5.2 pmol/mg prot.
  Wet/Dry lung weight ratio: 5.95 ± 0.02
  protein: 84 ± 1.2 mg protein/g wt
[1]; [5]
  8-Isoprostanes: 40 ± 1 pmol/mg prot
  # of cells: 1.43 ± 0.2 ×10^4/g wt
  Protein carbonyls: 6.4 ± 0.3 nmol/mg prot
  TBARS: 89 ± 9.3 pmol/mg prot.
  Wet/Dry lung weight ratio: 6.19 ± 0.06
  protein: 82.0 ± 1.2 mg protein/g wt
[1]; PIP-2 at 12 or 16 hours after LPS, evaluated at 24 hours
  protection against lung injury: 85-95%
[1]
  lung injury, peptide administered along with LPS (0 time): completely prevented lung injury
  lung injury, peptide administered at 12-16 hours after LPS: prevents further injury
[1]; evaluated at 24 hr after IT LPS, PIP-2 at 0, 12 or 16 h after LPS
  protection against lung injury: > 75%
NADPH oxidase (NOX2); PIP-2 2 ug/g in liposomes
  generation of H2O2: markedly inhibits
NADPH oxidase (NOX2); PIP-2 2 ug/g in saline
  effect on the rate of H2O2 production: no effect
aiPLA2 activity of Prdx6
  aiPLA2 activity of lung after LPS: dramatic decrease
[2]
  effect on ventilation-induced lung injury: protected against lung injury
[3]; PIP-2 2 μg/g IV
  mice fully recovered: 43%
[3]; PIP-2 2 μg/g IV, placebo 100% dead by 48 h
  survival at 36 h after LPS: 86%
[3]; PIP-2 20 μg/g IV
  long term survival rate: 70%

## LYEIKHQIL (Inhibitory peptide.) [PIP-4]
[1]; [6]
  8-Isoprostanes: 34 ± 1 pmol/mg prot
  Protein carbonyls: 5.8 ± 0.2 nmol/mg prot
  TBARS: 76 ± 2 pmol/mg prot.
[1]; [7]
  # of cells: 0.96 ± 0.03 ×10^4/g wt
  Wet/Dry lung weight ratio: 5.59 ± 0.02
  protein: 78 ± 2 μg protein/g wt
[1]; LPS 5 μg/g IT, PIP-4 2 μg/g IT @0 hrs, sacrifice at 24 hrs, LPS alone 7.40
  Wet/Dry lung weight ratio: 6.1 ± 0.01
[1]; LPS 5 μg/g IT, PIP-4 2 μg/g IT @0 hrs, sacrifice at 24 hrs, LPS alone 8.5
  # of cells: 0.95 ± 0.02 ×10^4/g wt
[1]; LPS 5 μg/g IT, PIP-4 2 μg/g IT @0 hrs, sacrifice at 24 hrs, LPS alone 16.9
  Protein carbonyls: 5.9 ± 0.3 nmol/mg prot
[1]; LPS 5 μg/g IT, PIP-4 2 μg/g IT @0 hrs, sacrifice at 24 hrs, LPS alone printed 1.02 ± 3
  8-Isoprostanes: 32 ± 2 pmol/mg prot
[1]; [8]
  # of cells: 1.46 ± 0.25 ×10^4/g wt
  Protein carbonyls: 6.4 ± 0.1 nmol/mg prot
  protein: 85 ± 2 μg protein/g wt
[1]; [9]
  # of cells: 1.44 ± 0.12 ×10^4/g wt
  Protein carbonyls: 6.4 ± 0.1 nmol/mg prot
  TBARS: 85 ± 2 pmol/mg prot.
  Wet/Dry lung weight ratio: 6.12 ± 0.09
  protein: 83 ± 1 μg protein/g wt
[1]
  lung injury, peptide administered along with LPS (0 time): prevents lung injury
  lung injury, peptide administered at 12-16 hours after LPS: prevents further injury
